Source: patent US20210228713A1, “TLR7 PEPTIDE CONJUGATES” (Apros Therapeutics, Inc., priority 2018, published 2021)
pEC50: −log10 of the molar value. Residues, ends and D or L forms follow the SMILES beside them. No end group written: not given here. *: point of attachment. X1 = CCCC[C@@H](CCS(C)(=O)=O)Nc1nc(N)nc(C)c1Cc1cc(CC(=O)*)ccc1OC

target: T1, human TLR7 (hTLR7) (Homo sapiens, UniProt Q9NYK1); test: HEK-Blue hTLR7 cell assay (NF-kB/AP-1 driven SEAP reporter); format: cell-based; conditions: not given
T1 construct: host or cells: HEK293 (HEK-Blue hTLR7)
T1 sequence (Q9NYK1 27-1049): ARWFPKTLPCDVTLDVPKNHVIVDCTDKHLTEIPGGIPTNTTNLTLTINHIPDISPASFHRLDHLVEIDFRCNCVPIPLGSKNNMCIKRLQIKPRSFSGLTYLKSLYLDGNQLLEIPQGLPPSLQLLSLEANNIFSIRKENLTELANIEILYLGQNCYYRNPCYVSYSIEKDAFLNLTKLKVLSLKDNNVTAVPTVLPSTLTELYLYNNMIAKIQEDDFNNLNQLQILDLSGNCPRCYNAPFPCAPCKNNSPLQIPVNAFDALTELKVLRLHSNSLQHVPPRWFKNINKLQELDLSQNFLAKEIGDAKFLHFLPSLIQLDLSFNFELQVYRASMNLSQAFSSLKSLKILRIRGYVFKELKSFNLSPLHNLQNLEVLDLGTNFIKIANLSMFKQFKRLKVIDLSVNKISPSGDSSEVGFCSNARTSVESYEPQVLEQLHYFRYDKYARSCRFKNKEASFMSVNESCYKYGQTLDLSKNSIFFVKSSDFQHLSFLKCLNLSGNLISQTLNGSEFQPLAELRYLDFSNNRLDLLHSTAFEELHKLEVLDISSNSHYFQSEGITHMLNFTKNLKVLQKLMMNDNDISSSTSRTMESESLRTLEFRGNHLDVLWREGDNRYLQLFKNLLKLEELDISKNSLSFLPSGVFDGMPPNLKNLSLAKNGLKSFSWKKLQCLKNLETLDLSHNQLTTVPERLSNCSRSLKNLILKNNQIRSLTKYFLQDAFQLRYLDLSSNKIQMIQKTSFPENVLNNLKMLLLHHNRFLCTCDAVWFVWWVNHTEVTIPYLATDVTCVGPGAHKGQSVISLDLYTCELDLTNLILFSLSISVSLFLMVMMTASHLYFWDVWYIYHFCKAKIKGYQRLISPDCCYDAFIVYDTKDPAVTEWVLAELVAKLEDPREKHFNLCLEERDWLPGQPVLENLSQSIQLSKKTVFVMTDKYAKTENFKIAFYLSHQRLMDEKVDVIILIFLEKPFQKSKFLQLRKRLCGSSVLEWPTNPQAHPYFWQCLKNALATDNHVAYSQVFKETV
Excerpt: HEK-Blue™ TLR7 cells were purchased from Invivogen (San Diego, Calif.). The following description was taken from the product information sheet.
“HEK-Blue™ hTLR7 cells are designed for studying the stimulation of human TLR7 (hTLR7) by monitoring the activation of NF-kB. HEK-Blue™ hTLR7 cells were obtained by co-transfection of the hTLR7 gene and an optimized secreted embryonic alkaline phosphatase (SEAP) reporter gene into HEK293 cells. The SEAP reporter gene is placed under the control of the IFN-b minimal promoter fused to five NF-kB and AP-1-binding sites. Stimulation with a TLR7 ligand activates NF-kB and AP-1 which induce the production of SEAP, which is detected by the HEK-Blue™ Detection cell culture medium.”
A typical assay protocol involved the following steps:
1. Cells were cultured according to the product information sheet.
2. 10 mM compound stock in DMSO were first diluted to 3 mM and then 3-fold serially diluted using DMSO to afford a 10-pt dilution.
3. 3 μl of the diluted DMSO were added to 57 μl HEK-Blue™ Detection media for a further 20-fold dilution.
4. 10 μl of the diluted compound in assay media were added into 40 μl cell culture (in HEK-Blue™ Detection media) in 384-well plate. Final cell concentration=8,000 cells per well.
5. The plates were incubated at 37° C. in 5% CO2 for 16 h. SEAP was determined using a spectrophotometer at 620-655 nm.

Row | Compound | pEC50
1 | CCCC[C@@H](CCS(C)(=O)=O)Nc1nc(N)nc(C)c1Cc1cc(CC(=O)N[C@@H](CC(N)=O)C(=O)N[C@@H](CCCNC(=N)N)C(=O)N[C@@H](Cc2ccccc2)C(=O)N[C@H](C(=O)N[C@@H](CO)C(=O)N[C@H](C(=O)N[C@@H](Cc2ccccc2)C(=O)N[C@@H](C)C(=O)N[C@@H](CO)C(=O)NCC(=O)N2CCC[C@H]2C(=O)N[C@@H](CO)C(=O)N[C@@H](CCC(N)=O)C(=O)N[C@@H](CCCCN)C(=O)N[C@H](C(=O)N[C@@H](CCC(N)=O)C(=O)N[C@@H](CC(C)C)C(=O)N[C@H](C(=O)N[C@@H](CC(N)=O)C(=O)N[C@@H](CC(N)=O)C(=O)N[C@@H](CC(N)=O)C(=O)NCC(=O)N[C@@H](CO)C(=O)N[C@@H](Cc2c[nH]c3ccccc23)C(=O)N[C@@H](Cc2c[nH]cn2)C(=O)O)C(C)C)[C@@H](C)CC)[C@@H](C)CC)C(C)C)ccc1OC [*AP5] (X1-NRFVSIFASGPSQKIQLVNNNGSWH-OH) | 6.82
2 | CCCC[C@@H](CCS(C)(=O)=O)Nc1nc(N)nc(C)c1Cc1cc(CC(=O)N[C@@H](CC(C)C)C(=O)N[C@@H](CC(C)C)C(=O)N[C@H](C(=O)N[C@@H](CCCNC(=N)N)C(=O)N[C@H](C(=O)N[C@@H](CC(C)C)C(=O)N[C@H](C(=O)N[C@H](C(=O)N2CCC[C@H]2C(=O)N[C@@H](CCC(N)=O)C(=O)N[C@@H](CO)C(=O)N[C@@H](CC(C)C)C(=O)N[C@@H](CC(=O)O)C(=O)N[C@@H](CO)C(=O)N[C@@H](Cc2c[nH]c3ccccc23)C(=O)N[C@@H](Cc2c[nH]c3ccccc23)C(=O)N[C@H](C(=O)N[C@@H](CO)C(=O)N[C@@H](CC(C)C)C(=O)N[C@@H](CC(N)=O)C(=O)N[C@@H](Cc2ccccc2)C(=O)N[C@@H](CC(C)C)C(=O)NCC(=O)NCC(=O)N[C@@H](CO)C(=O)O)[C@@H](C)O)[C@@H](C)CC)[C@@H](C)O)[C@@H](C)CC)[C@@H](C)O)ccc1OC [*AP9] (X1-LLTRILTIPQSLDSWWTSLNFLGGS-OH) | 6.49
3 | CSCC[C@H](NC(=O)CNC(=O)[C@@H](NC(=O)[C@H](CCCNC(=N)N)NC(=O)[C@@H](NC(=O)[C@H](CC(C)C)NC(=O)[C@H](C)NC(=O)[C@H](CCCNC(=N)N)NC(=O)[C@@H](NC(=O)[C@H](CCCNC(=N)N)NC(=O)[C@H](CCC(N)=O)NC(=O)[C@H](Cc1ccc(O)cc1)NC(=O)[C@@H](NC(=O)[C@@H](NC(=O)[C@H](CC(=O)O)NC(=O)[C@H](CC(N)=O)NC(=O)[C@H](CC(C)C)NC(=O)[C@H](CC(N)=O)NC(=O)[C@H](CO)NC(=O)[C@@H](N)Cc1c[nH]cn1)[C@@H](C)O)[C@@H](C)O)[C@@H](C)O)C(C)C)[C@@H](C)O)C(=O)N[C@@H](CC(=O)O)C(=O)N1CCC[C@H]1C(=O)N[C@@H](CCCNC(=N)N)C(=O)N[C@@H](CCSC)C(=O)N[C@@H](CS)C(=O)O [AP1] | < 4.52
4 | CC[C@H](C)[C@H](NC(=O)[C@H](CCCCN)NC(=O)CNC(=O)[C@@H](NC(=O)[C@@H](NC(=O)[C@@H](NC(=O)[C@H](Cc1ccccc1)NC(=O)[C@H](C)NC(=O)[C@H](CCCNC(=N)N)NC(=O)CNC(=O)[C@@H]1CCCN1C(=O)CNC(=O)[C@H](CCCNC(=N)N)NC(=O)[C@H](CCC(N)=O)NC(=O)[C@@H](NC(=O)[C@H](CCCNC(=N)N)NC(=O)[C@@H](NC(=O)[C@H](CO)NC(=O)[C@H](CCCCN)NC(=O)[C@H](CCCNC(=N)N)NC(=O)[C@@H](N)CCCCN)[C@@H](C)CC)[C@@H](C)CC)C(C)C)[C@@H](C)O)[C@@H](C)CC)C(=O)NCC(=O)N[C@@H](CC(N)=O)C(=O)N[C@@H](CCSC)C(=O)N[C@@H](CCCNC(=N)N)C(=O)O [AP6] | < 4.52
5 | DTIWALSVKYGVSVQDIMSWNNLSS [AP7] | < 5.00

same assay, conditions: HEK TLR7 activity of Compound 1-peptide conjugates; read-out: EC50, Peptide - Compound 1 Conjugate

Row | Compound | pEC50
6 | CCCC[C@@H](CCS(C)(=O)=O)Nc1nc(N)nc(C)c1Cc1cc(CC(=O)N[C@@H](CCC(=O)O)C(=O)N[C@@H](CO)C(=O)N[C@@H](CC(C)C)C(=O)N[C@@H](CCCCN)C(=O)N[C@H](C(=O)N[C@@H](CO)C(=O)N[C@@H](CCC(N)=O)C(=O)N[C@@H](C)C(=O)N[C@H](C(=O)N[C@@H](Cc2c[nH]cn2)C(=O)N[C@@H](C)C(=O)N[C@@H](C)C(=O)N[C@@H](Cc2c[nH]cn2)C(=O)N[C@@H](C)C(=O)N[C@@H](CCC(=O)O)C(=O)N[C@H](C(=O)N[C@@H](CC(N)=O)C(=O)N[C@@H](CCC(=O)O)C(=O)N[C@@H](C)C(=O)NCC(=O)N[C@@H](CCCNC(=N)N)C(=O)N[C@@H](CCC(=O)O)C(=O)N[C@H](C(=O)N[C@H](C(=O)NCC(=O)O)C(C)C)C(C)C)[C@@H](C)CC)C(C)C)[C@@H](C)CC)ccc1OC [*AP10] (X1-ESLKISQAVHAAHAEINEAGREVVG-OH) | 6.68
7 | CCCC[C@@H](CCS(C)(=O)=O)Nc1nc(N)nc(C)c1Cc1cc(CC(=O)N[C@@H](CCC(=O)O)C(=O)N[C@@H](CCC(N)=O)C(=O)N[C@@H](CC(C)C)C(=O)N[C@@H](CO)C(=O)N[C@@H](CO)C(=O)N[C@H](C(=O)N[C@@H](CO)C(=O)N[C@@H](CO)C(=O)N[C@@H](Cc2ccccc2)C(=O)N[C@@H](CCC(=O)O)C(=O)N[C@@H](CCCNC(=N)N)C(=O)N[C@@H](Cc2ccccc2)C(=O)N[C@@H](CCC(=O)O)C(=O)N[C@H](C(=O)N[C@@H](Cc2ccccc2)C(=O)N2CCC[C@H]2C(=O)N[C@@H](CCCCN)C(=O)N[C@@H](CCC(=O)O)C(=O)N[C@@H](CO)C(=O)N[C@@H](CO)C(=O)N[C@@H](Cc2c[nH]c3ccccc23)C(=O)N2CCC[C@H]2C(=O)N[C@@H](CC(N)=O)C(=O)N[C@@H](Cc2c[nH]cn2)C(=O)N[C@@H](CC(N)=O)C(=O)O)[C@@H](C)CC)C(C)C)ccc1OC [*AP11] (X1-EQLSSVSSFERFEIFPKESSWPNHN-OH) | 6.52

same assay, conditions: HEK TLR7 activity of unconjugated (naked) peptides; read-out: EC50, Peptide without Compound 1

Row | Compound | pEC50
8 | CC[C@H](C)[C@H](NC(=O)[C@H](CCCCN)NC(=O)CNC(=O)[C@@H](NC(=O)[C@@H](NC(=O)[C@H](Cc1ccccc1)NC(=O)[C@H](C)NC(=O)[C@H](CCCNC(=N)N)NC(=O)CNC(=O)[C@@H]1CCCN1C(=O)CNC(=O)[C@H](CCCNC(=N)N)NC(=O)[C@H](CCC(N)=O)NC(=O)[C@@H](NC(=O)[C@H](CCCNC(=N)N)NC(=O)[C@@H](NC(=O)[C@H](CO)NC(=O)[C@H](CCCCN)NC(=O)[C@H](CCCNC(=N)N)NC(=O)[C@@H](N)CCCCN)[C@@H](C)CC)[C@@H](C)CC)C(C)C)[C@@H](C)O)C(=O)NCC(=O)N[C@@H](CC(N)=O)C(=O)N[C@@H](CCSC)C(=O)N[C@@H](CCCNC(=N)N)C(=O)N[C@@H](CCC(N)=O)C(=O)O [AP2] | < 4.52
9 | CC[C@H](C)[C@H](NC(=O)[C@H](CC(C)C)NC(=O)[C@@H](NC(=O)[C@H](CC(C)C)NC(=O)[C@H](CC(C)C)NC(=O)[C@H](CC(C)C)NC(=O)CN)C(C)C)C(=O)N[C@@H](Cc1ccc(O)cc1)C(=O)N[C@@H](CC(C)C)C(=O)N[C@@H](Cc1ccc(O)cc1)C(=O)NCC(=O)N1CCC[C@H]1C(=O)N[C@@H](CO)C(=O)N[C@@H](CC(C)C)C(=O)N[C@@H](Cc1ccc(O)cc1)C(=O)N[C@@H](CCCNC(=N)N)C(=O)N[C@@H](CCCNC(=N)N)C(=O)N[C@@H](Cc1ccccc1)C(=O)N[C@@H](Cc1ccccc1)C(=O)N[C@@H](CO)C(=O)N[C@@H](CC(N)=O)C(=O)N[C@@H](CC(=O)O)C(=O)N[C@@H](CS)C(=O)N[C@@H](CS)C(=O)N[C@@H](CO)C(=O)O [AP4] (H-GLLLVLIYLYGPSLYRRFFSNDCCS-OH) | < 4.52

same assay, conditions: HEK-Blue hTLR7 cells, 16 h incubation, SEAP read at 620-655 nm; read-out: HEK-TLR7 EC50

Row | pEC50 | Compound
10 | 7.00 | CCCC[C@@H](CCS(C)(=O)=O)Nc1nc(N)nc(C)c1Cc1cc(CC(=O)O)ccc1OC [Compound 1, (S)-2-(3-((2-amino-4-methyl-6-((1-(methylsulfonyl)heptan-3-yl)amino)pyrimidin-5-yl)methyl)-4-methoxyphenyl)acetic acid]
11 | 7.00 | CCCC[C@@H](CCS(C)(=O)=O)Nc1nc(N)nc(C)c1Cc1cc(CC(=O)N[C@@H](C)C(=O)O)ccc1OC [Compound 1-alanine conjugate]
12 | 7.00 | CCCC[C@@H](CCS(C)(=O)=O)Nc1nc(N)nc(C)c1Cc1cc(CC(=O)NCCCC[C@H](NC(C)=O)C(=O)O)ccc1OC [Compound 1-lysine conjugate]
